Experimental data taken from patent US20120135923A1, “Use of Melanocortins to Treat Dyslipidemia” (IPSEN PHARMA, S.A.S., priority 2009, published 2012).
pEC50, pKi: −log10 of the molar value. Like-named read-outs stand apart in the source and are kept apart here. Blank lines part the entries; values can stand above or below the compound they belong to. Bridge positions count the residues as written; N and C are the ends. Square brackets hold non-standard residues; d marks the D form. Peptide text beside a SMILES is read from it. d2Nal = N[C@H](Cc1ccc2ccccc2c1)C(=O)O; Bta = N[C@@H](Cc1csc2ccccc12)C(=O)O; Nle = CCCC[C@H](N)C(=O)O

Key:
hMC4-R [1] = target: T1, hMC4-R (Homo sapiens, UniProt P32245); assay: Radioligand binding assay, [125I]-NDP-α-MSH competition, CHO-K1 membranes
T1 construct: expressed in transfected cells; host or cells: CHO-K1
Description: (§1) Cellular membranes used for the in vitro receptor binding assays were obtained from transgenic CHO-K1 cells stably expressing hMC-R receptor subtypes 1, 3, 4 or 5. […] The pellets were resuspended in the same buffer and centrifuged at 50,000 g for 10 minutes at approximately 4° C. The washed pellets containing the cellular membranes were stored at approximately −80° C.
(§2) Cell membranes (1-10 μg protein/well) prepared as described above were incubated in 50 mM Tris-HCl at pH 7.4 containing 0.2% bovine serum albumin (BSA), 5 mM MgCl2, 1 mM CaCl2 and 0.1 mg/mL bacitracin, with increasing concentrations of the test compound and 0.1-0.3 nM [^25I]-NDP-α-MSH for approximately 90-120 minutes at approximately 37° C. […] Filters were washed three times with 50 mM Tris-HCl at pH 7.4 at a temperature of approximately 0-4° C. and then assayed for radioactivity using a Packard Topcount® scintillation counter. Binding data were analyzed by computer-assisted non-linear regression analysis (XL fit; IDBS).

hMC1-R [2] = target: T2, hMC1-R (Homo sapiens, UniProt Q01726); assay: as above
T2 construct: expressed in transfected cells; host or cells: CHO-K1
Description: as §1, §2

hMC4-R [3] = target: T1, hMC4-R; assay: cyclic AMP bioassay (ECL) in CHO-K1 cells; assay type: cell-based
Description: (§3) Intracellular cyclic AMP (cAMP) levels were determined by an electrochemiluminescence (ECL) assay (Meso Scale Discovery®, Gaithersburg, Md.; referred to hereinafter as MSD). […] Transgenic CHO-K1 cells stably expressing hMC receptor subtypes 1, 3, 4 or 5 were dispensed at a density of approximately 7,000 cells/well in 384-well Multi-Array®plates (MSD) containing integrated carbon electrodes and coated with anti-cAMP antibody. Increasing concentrations of the test compounds were added and the cells were incubated for approximately 40 minutes at approximately 37° C. […] At the end of the second incubation period read buffer (Tris-buffered solution containing an ECL co-reactant and Triton X-100 at ph 7.8) was added and the cAMP levels in the cell lysates were immediately determined by ECL detection with a Sector Imager 6000 Reader® (MSD). Data were analyzed using a computer-assisted non-linear regression analysis (XL fit; IDBS) and reported as either an EC50 value or a Kb value.
(§4) The Kb value reflects the potency of an antagonist and is determined by Schild analysis. In brief, concentration-response curves of an agonist are carried out in the presence of increasing concentrations of an antagonist. […] It is calculated by extrapolating the line on a Schild plot to zero on the y-axis.

hMC3-R [4] = target: T3, hMC3-R (Homo sapiens, UniProt P41968); assay: cyclic AMP bioassay (ECL) in CHO-K1 cells; assay type: cell-based
T3 construct: expressed in transfected cells; host or cells: CHO-K1
Description: as §3, §4

hMC3-R [5] = target: T3, hMC3-R; assay: Radioligand binding assay, [125I]-NDP-α-MSH competition, CHO-K1 membranes; conditions: Table 5
Description: as §1, §2

hMC1-R [6] = target: T2, hMC1-R; assay: cyclic AMP bioassay (ECL) in CHO-K1 cells; assay type: cell-based
hMC5-R [7] = target: T4, hMC5-R (Homo sapiens, UniProt P33032); assay: cyclic AMP bioassay (ECL) in CHO-K1 cells; assay type: cell-based
T4 construct: expressed in transfected cells; host or cells: CHO-K1
Description: as §3, §4

hMC5-R [8] = target: T4, hMC5-R; assay: Radioligand binding assay, [125I]-NDP-α-MSH competition, CHO-K1 membranes; conditions: Table 5
Description: as §1, §2

T3 sequence (P41968 whole entry): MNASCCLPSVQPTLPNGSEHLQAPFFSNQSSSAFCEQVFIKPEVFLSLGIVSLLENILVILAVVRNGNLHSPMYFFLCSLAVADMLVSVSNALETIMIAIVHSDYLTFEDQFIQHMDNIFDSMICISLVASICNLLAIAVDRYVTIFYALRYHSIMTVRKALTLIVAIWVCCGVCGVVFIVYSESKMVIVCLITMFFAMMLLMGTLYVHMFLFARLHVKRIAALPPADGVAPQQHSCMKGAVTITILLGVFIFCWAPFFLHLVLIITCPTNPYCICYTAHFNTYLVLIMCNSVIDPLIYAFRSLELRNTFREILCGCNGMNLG
T2 sequence (Q01726 whole entry): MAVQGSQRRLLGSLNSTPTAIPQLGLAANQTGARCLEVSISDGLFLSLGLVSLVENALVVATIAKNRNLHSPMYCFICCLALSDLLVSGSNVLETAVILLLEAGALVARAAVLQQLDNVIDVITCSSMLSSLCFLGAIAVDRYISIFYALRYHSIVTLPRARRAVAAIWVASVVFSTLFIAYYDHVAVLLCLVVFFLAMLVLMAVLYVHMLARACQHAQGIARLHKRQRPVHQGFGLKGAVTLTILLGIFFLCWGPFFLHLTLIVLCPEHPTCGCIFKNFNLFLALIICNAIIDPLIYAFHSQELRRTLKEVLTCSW
T4 sequence (P33032 whole entry): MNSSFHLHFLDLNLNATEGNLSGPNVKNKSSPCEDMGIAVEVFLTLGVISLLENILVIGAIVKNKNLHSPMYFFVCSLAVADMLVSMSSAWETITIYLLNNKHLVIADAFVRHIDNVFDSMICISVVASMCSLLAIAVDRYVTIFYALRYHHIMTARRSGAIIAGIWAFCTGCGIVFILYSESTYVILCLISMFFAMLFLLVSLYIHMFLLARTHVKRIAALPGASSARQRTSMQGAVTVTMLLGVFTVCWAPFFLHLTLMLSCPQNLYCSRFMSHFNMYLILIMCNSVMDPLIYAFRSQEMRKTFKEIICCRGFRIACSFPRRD
T1 sequence (P32245 whole entry): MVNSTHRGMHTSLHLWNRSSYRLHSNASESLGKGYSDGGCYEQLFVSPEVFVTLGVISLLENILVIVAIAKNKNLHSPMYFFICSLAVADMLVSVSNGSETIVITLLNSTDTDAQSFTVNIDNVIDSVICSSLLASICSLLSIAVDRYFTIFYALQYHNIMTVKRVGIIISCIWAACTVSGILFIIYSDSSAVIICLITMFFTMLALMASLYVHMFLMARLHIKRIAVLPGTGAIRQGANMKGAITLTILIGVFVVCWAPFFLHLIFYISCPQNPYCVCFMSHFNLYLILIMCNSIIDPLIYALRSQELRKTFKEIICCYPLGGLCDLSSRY

pKi (hMC4-R [1]; Table 7, read-out: Ki hMC4): 7.70 | pKi (hMC1-R [2]; Table 7, read-out: Ki hMC1): 7.18 | pEC50 (hMC4-R [3]; Table 11, read-out: EC50 hMC4): 8.67 | pEC50 (hMC3-R [4]; Table 11, read-out: EC50 hMC3): 7.31
Structure (SMILES): C[C@@H]1C(=O)N[C@@H](Cc2cnc[nH]2)C(=O)N[C@H](Cc2ccccc2)C(=O)N[C@@H](CCCNC(=N)N)C(=O)N[C@@H](Cc2c[nH]c3ccccc23)C(=O)N[C@H](C(N)=O)CNC(=O)C[C@@H]2NC(=O)N1C2=O [c[Hydantoin(C(O)-(Asp-D-Ala))-His-D-Phe-Arg-Trp-Dap]-NH2]

pKi (hMC4-R [1]; Table 5, read-out: Ki KMC4-R): 9.03 | pKi (hMC3-R [5]; read-out: Ki hMC3-R): 8.61 | pKi (hMC1-R [2]; Table 5, read-out: Ki hMC1-R): 9.34 | Kb (hMC4-R [3]; Table 9C/9D, antagonist potency by Schild analysis, read-out: Kb MC4-R): 0.000824 µM | pEC50 (hMC1-R [6]; Table 9C/9D, read-out: EC50 hMC1-R): 9.38 | Kb (hMC3-R [4]; Table 9C/9D, antagonist potency by Schild analysis, read-out: Kb hMC3-R): 0.00932 µM | pEC50 (hMC5-R [7]; Table 9C/9D, read-out: EC50 hMC5-R): 9.51
Structure (SMILES): CC(=O)N[C@@H](CCc1ccccc1)C(=O)N[C@H]1CC(=O)NCCCC[C@@H](C(N)=O)NC(=O)CCCNC(=O)[C@H](Cc2c[nH]c3ccccc23)NC(=O)[C@H](CCCNC(=N)N)NC(=O)[C@@H](Cc2ccc3ccccc3c2)NC(=O)[C@H](Cc2c[nH]cn2)NC1=O [Ac-hPhe-c(Asp-His-D-2-Nal-Arg-Trp-Gaba-Lys)-NH2]

pKi (hMC5-R [8]; read-out: Ki hMC5-R): 7.40 | pKi (hMC3-R [5]; read-out: Ki hMC3-R): 6.98
Structure (SMILES): CCCC[C@H](NC(C)=O)C(=O)N[C@H]1CSSC[C@@H](C(N)=O)NC(=O)[C@H](Cc2c[nH]c3ccccc23)NC(=O)[C@H](CCCNC(=N)N)NC(=O)[C@@H](Cc2ccccc2)NC(=O)[C@H](Cc2c[nH]cn2)NC(=O)[C@@H](C(C)C)NC1=O [Ac-Nle-c(Cys-D-Val-His-D-Phe-Arg-Trp-Cys)-NH2]

Further lines, the compound ahead of its results:

Structure (SMILES): CCCC[C@H](NC(C)=O)C(=O)N[C@H]1CSSC(C)(C)[C@@H](C(=O)O)NC(=O)[C@H](Cc2c[nH]c3ccccc23)NC(=O)[C@H](CCCNC(=N)N)NC(=O)[C@@H](Cc2ccccc2)NC(=O)[C@H](Cc2c[nH]cn2)NC(=O)[C@@H](C)NC1=O [Ac-Nle-c(Cys-D-Ala-His-D-Phe-Arg-Trp-Pen)-OH]
pKi (hMC4-R [1]; Ki KMC4-R, Table 5): 7.76 | pKi (hMC5-R [8]; Ki hMC5-R): 6.78

Structure (SMILES): CCCC[C@H](NC(C)=O)C(=O)N[C@H]1CSSC[C@@H](C(N)=O)NC(=O)[C@H](Cc2csc3ccccc23)NC(=O)[C@H](CCCNC(=N)N)NC(=O)[C@@H](Cc2ccc3ccccc3c2)NC(=O)[C@H](Cc2c[nH]cn2)NC(=O)[C@@H](C)NC1=O [Ac-Nle-c(Cys-D-Ala-His-D-2-Nal-Arg-Bal-Cys)-NH2] (Ac-[Nle]C[dA]H[d2Nal]R[Bta]C-NH2; disulfide 2-8)
pKi (hMC5-R [8]; read-out: Ki hMC5-R): 6.90 | pKi (hMC3-R [5]; read-out: Ki hMC3-R): 7.90 | pKi (hMC1-R [2]; Table 5, read-out: Ki hMC1-R): 7.65

Structure (SMILES): CCCC[C@H](NC(C)=O)C(=O)N[C@H]1CSSC[C@@H](C(N)=O)NC(=O)[C@H](Cc2c[nH]c3ccccc23)NC(=O)[C@H](CCCNC(=N)N)NC(=O)[C@@H](Cc2ccc3ccccc3c2)NC(=O)[C@H](Cc2c[nH]cn2)NC(=O)[C@@H](C)NC1=O [Ac-Nle-c(Cys-D-Ala-His-D-2-Nal-Arg-Trp-Cys)-NH2]
pKi (hMC4-R [1]; Ki KMC4-R, Table 5): 8.12 | pKi (hMC5-R [8]; Ki hMC5-R): 6.99 | Kb (hMC4-R [3]): 0.0388 µM | pEC50 (hMC1-R [6]): 7.75 | Kb (hMC3-R [4]): 0.0124 µM | pEC50 (hMC5-R [7]): 7.93

Structure (SMILES): CC[C@H](C)[C@@H]1NC(=O)N([C@H]2CSSC[C@@H](C(N)=O)NC(=O)[C@H](Cc3c[nH]c4ccccc34)NC(=O)[C@H](CCCNC(=N)N)NC(=O)[C@@H](Cc3ccccc3)NC(=O)[C@H](Cc3cnc[nH]3)NC(=O)[C@@H](C)NC2=O)C1=O [c[Hydantoin(C(O)-(Ile-Cys))-D-Ala-His-D-Phe-Arg-Trp-Cys]-NH2]
pKi (hMC4-R [1]; Ki hMC4, Table 7): 7.38 | pKi (hMC1-R [2]; Ki hMC1, Table 7): 7.27 | pEC50 (hMC4-R [3]): 8.73 | pEC50 (hMC3-R [4]): 8.07

Structure (SMILES): CC(=O)N[C@H](CCCNC(=N)N)C(=O)N[C@H]1CSSC(C)(C)[C@@H](C(N)=O)NC(=O)[C@H](Cc2c[nH]c3ccccc23)NC(=O)[C@H](CCCNC(=N)N)NC(=O)[C@@H](Cc2ccccc2)NC(=O)[C@H](Cc2c[nH]cn2)NC(=O)[C@@H](C)NC1=O [Ac-D-Arg-c(Cys-D-Ala-His-D-Phe-Arg-Trp-Pen)-NH2]
pKi (hMC5-R [8]; Ki hMC5-R): 6.09 | pKi (hMC3-R [5]; Ki hMC3-R): 7.88 | pKi (hMC1-R [2]; Ki hMC1-R, Table 5): 8.08 | pEC50 (hMC4-R [3]): 9.31 | pEC50 (hMC1-R [6]): 7.58 | pEC50 (hMC3-R [4]): 7.98 | pEC50 (hMC5-R [7]): 5.61
